Measured values: PubChem BioAssay AID2834 (Southern Research Specialized Biocontainment Screening …, 2010)
Active and inactive are the calls of the source.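 How the source made its calls: active means more than 40% inhibition of the growth reporter signal at one or more tested doses; inactive means below 40% inhibition at every dose.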

These compounds were tested on S. Typhimurium nmpC-GFP reporter (non-PhoP growth counter-screen), low Mg2+, 4 h (assay: non-PhoP GFP expression and growth suppression – purified and synthesized compounds, set 2, counter-screen for PhoP regulon inhibitor project, dose response (AID 2834)).
S=C(NCc1ccc(Cl)cc1)Nc1ccc(Br)cc1 was tested, and the IC50 was > 150 µM (inactive). With O=C(Nc1ccccc1)N1CCCN(Cc2ccccc2F)C1 the IC50 was > 150 µM (inactive). In the case of Cc1ccc(CN2CCCN(C(=O)Nc3ccc(Cl)cc3)C2)cc1, the IC50 is reported as > 150 µM (inactive). In the case of COc1ccccc1Nc1nc(NCc2ccco2)c2ccccc2n1, the IC50 is reported as < 0.15 µM. Cc1ccc(NC(=S)NCc2ccc(Cl)cc2)cc1 was tested, and the IC50 was > 150 µM (inactive). For CCCCn1c(NS(=O)(=O)c2ccccc2)c(S(=O)(=O)c2ccc(C)cc2)c2nc3ccccc3nc21, the IC50 was < 0.15 µM. For CN1CCc2nc(SCC(=O)Nc3cccc(F)c3)c(C#N)c(-c3cccs3)c2C1, the IC50 was < 0.15 µM. With O=C(Nc1ccc(Cl)cc1)N1CCCN(Cc2ccc(F)cc2)C1 the IC50 was > 150 µM (inactive). In the case of N#C/C(=C\c1ccc[nH]1)C(=O)NC1CC1, the IC50 is reported as < 0.15 µM. With Cc1ccc(Nc2cc(C)c3c(O)cccc3n2)cc1C the IC50 was < 0.15 µM. S=C(NCc1ccccc1Cl)Nc1ccncc1 was tested, and the IC50 was > 150 µM (inactive). In the case of CCn1cc(C(=O)O)c(=O)c2cc(F)c(N3CCN(C(=S)NC(=O)c4ccccc4Cl)CC3)cc21, the IC50 is reported as < 0.15 µM. COc1cccc(NC(=S)NCc2ccc(Cl)cc2)c1 was tested, and the IC50 was > 150 µM (inactive). With COc1ccc(NC(=S)NCc2ccc(Cl)cc2)cc1 the IC50 was > 150 µM (inactive). With CSc1nc2cc(Oc3cccc(Cl)c3Cl)c(Cl)cc2[nH]1 the IC50 was < 0.15 µM. For CCCCn1c(NS(=O)(=O)c2ccc(C)cc2)c(S(=O)(=O)c2ccccc2)c2nc3ccccc3nc21, the IC50 was < 0.15 µM. CCOc1ccc(NC(=S)N2CCN(c3cc4c(cc3F)c(=O)c(C(=O)O)cn4CC)CC2)cc1 was tested, and the IC50 was > 150 µM (inactive). In the case of O=C1C2=C(Nc3ccccc3SC2c2ccccc2Cl)c2ccccc21 (configuration not stated), the IC50 is reported as > 150 µM (inactive). In the case of O=C1C2=C(Nc3ccccc3SC2c2ccccc2Br)c2ccccc21 (configuration not stated), the IC50 is reported as > 150 µM (inactive). In the case of O=C1C2=C(Nc3ccccc3SC2c2ccc(C(F)(F)F)cc2)c2ccccc21 (configuration not stated), the IC50 is reported as > 150 µM (inactive). O=S(=O)(Nc1c(S(=O)(=O)c2ccccc2)c2nc3ccccc3nc2n1C1CCCCC1)c1ccccc1 was tested, and the IC50 was < 0.15 µM. For O=C1C2=C(Nc3ccccc3SC2c2ccccc2C(F)(F)F)c2ccccc21 (configuration not stated), the IC50 was > 150 µM (inactive). C1=C(CCNc2ncnc3c2[nH]c2ccccc23)CCCC1 was tested, and the IC50 was < 0.15 µM. For O=C(Nc1nnc(-c2cccs2)o1)c1cccc(C(F)(F)F)c1, the IC50 was < 0.15 µM. CCn1cc(C(=O)O)c(=O)c2cc(F)c(N3CCN(C(=S)Nc4ccccc4C(F)(F)F)CC3)cc21 showed an IC50 of 76.4 µM. CCCCCNC(=O)c1cn(CC)c2cc(N3CCN(C)CC3)c(F)cc2c1=O was tested, and the IC50 was < 0.15 µM. O=C(Nc1ccc(Br)cc1)N1CCCN(Cc2ccccc2F)C1 was tested, and the IC50 was > 150 µM (inactive). With O=C1C2=C(Nc3ccccc3SC2c2cccc(Cl)c2)c2ccccc21 (configuration not stated) the IC50 was > 150 µM (inactive). COc1ccc(CNC(=S)Nc2ccncc2)cc1 was tested, and the IC50 was > 150 µM (inactive). For COc1ccc(NC(=O)c2cc(Br)c(Br)s2)cn1, the IC50 was < 0.15 µM. CCn1cc(C(=O)O)c(=O)c2cc(F)c(N3CCN(C(=S)Nc4ccccc4Cl)CC3)cc21 was tested, and the IC50 was > 150 µM (inactive). O=[N+]([O-])c1ccc(CNC2CCCc3ccccc32)cc1 (configuration not stated) was tested, and the IC50 was < 0.15 µM. For CCn1cc(C(=O)O)c(=O)c2cc(F)c(N3CCN(C(=S)Nc4ccc(Cl)cc4)CC3)cc21, the IC50 was 131 µM. O=C(Nc1ccccc1Cl)N1CCCN(Cc2ccccc2F)C1 was tested, and the IC50 was > 150 µM (inactive). For O=C(O)c1cn(-c2ccc(F)cc2)c2cc(Cl)c(F)cc2c1=O, the IC50 was < 0.15 µM. With S=C(NCc1ccc(Cl)cc1)Nc1ccc(Cl)cc1 the IC50 was > 150 µM (inactive). With CCn1cc(C(=O)O)c(=O)c2cc(F)c(N3CCN(C(=S)NCc4ccccc4)CC3)cc21 the IC50 was > 150 µM (inactive). Cc1cccc(NC(=S)NCc2ccc(Cl)cc2)c1 was tested, and the IC50 was > 150 µM (inactive). With COc1ccccc1NC(=O)N1CCCN(Cc2ccccc2F)C1 the IC50 was > 150 µM (inactive). With COc1c(N2CCN(C(=S)NCc3ccccc3)C(C)C2)c(F)cc2c(=O)c(C(=O)O)cn(C3CC3)c12 (configuration not stated) the IC50 was < 0.15 µM. O=C(Nc1ccc(Cl)cc1)N1CCCN(Cc2ccccc2F)C1 was tested, and the IC50 was < 0.15 µM. O=C(Nc1cccnc1)c1cc(Br)c(Br)s1 was tested, and the IC50 was < 0.15 µM. For O=C1C2=C(Nc3ccccc3SC2c2ccco2)c2ccccc21 (configuration not stated), the IC50 was < 0.15 µM. For Fc1ccccc1NC(=S)NCc1ccc(Cl)cc1, the IC50 was > 150 µM (inactive). In the case of O=C1c2ccccc2C2=Nc3ccccc3SC(c3ccccc3F)C12 (configuration not stated), the IC50 is reported as < 0.15 µM. For S=C(NCc1ccc(Cl)cc1)Nc1cccnc1, the IC50 was > 150 µM (inactive). For O=C(Nc1ccccc1)N1CCCN(Cc2ccc(F)cc2)C1, the IC50 was > 150 µM (inactive). With O=C(NCc1ccccc1)N1CCCN(Cc2ccccc2F)C1 the IC50 was > 150 µM (inactive). For O=C1C2=C(Nc3ccccc3SC2c2ccsc2)c2ccccc21 (configuration not stated), the IC50 was > 150 µM (inactive). In the case of S=C(NCc1ccc(Cl)cc1)Nc1cccc(Cl)c1, the IC50 is reported as > 150 µM (inactive). For O=c1c2ccccc2[nH]c2ccc(F)cc12, the IC50 was < 0.15 µM. In the case of CCn1cc(C(=O)O)c(=O)c2cc(F)c(N3CCN(C(=S)NC(=O)c4ccccc4F)CC3)cc21, the IC50 is reported as < 0.15 µM. CCn1cc(C(=O)O)c(=O)c2cc(F)c(N3CCN(C(=S)Nc4ccccc4C)CC3)cc21 was tested, and the IC50 was > 150 µM (inactive). CCn1cc(C(=O)O)c(=O)c2cc(F)c(N3CCN(C(=S)NC)CC3)cc21 was tested, and the IC50 was > 150 µM (inactive). CN(C)CCCN(C(=O)CCc1ccccc1)c1nc2ccc(Cl)cc2s1 was tested, and the IC50 was < 0.15 µM. With CN1CCN(C2=Cc3cc(Cl)ccc3Sc3cc(F)ccc32)CC1 the IC50 was < 0.15 µM. For COc1cccc(C2Sc3ccccc3NC3=C2C(=O)c2ccccc23)c1 (configuration not stated), the IC50 was > 150 µM (inactive).
